In patent publication US11040038B2, “Methods for treating diseases associated with abnormal ACVR1 expression and ACVR1 inhibitors for use in the same” (Sumitomo Dainippon Pharma Oncology, Inc., priority 2018, dated 2021):
Converted amounts (≈) assume the structure as drawn. Read-outs that look alike come from different tables or passages of the source.

How the values were obtained:
Format in all cases: physicochemical
[1] = Hygroscopicity by DVS at 25° C.; conditions: for Hygroscopicity (%), water uptake: 25° C./80% RH
Protocol: A DVS isotherm plot was collected at 25° C. to investigate the solid form stability as a function of humidity. All the anhydrous samples were pre-equilibrated at 0% RH to remove the unbounded solvent or water before getting started. As evidenced by the water uptake of […] up to 80% RH, freebase Form A and both two salt forms were slightly hygroscopic, and no solid form change was observed after DVS evaluation (FIGS. 20A, 20B, 20C, 20D, 20E, and 20F).
Dynamic Vapor Sorption (DVS) was measured via a SMS (Surface Measurement Systems) DVS Intrinsic. The relative humidity at 25° C. were calibrated against deliquescence point of LiCl, Mg(NO3)2 and KCl.

[2] = Kinetic solubility in pH 2, 5 and 7 buffers at RT; conditions: for solubility at 1 h / solubility at 2 h / solubility at 4 h / solubility at 24 h: 19 °C, aqueous buffer, thermodynamic from solid, read-out: S: solubility; for solubility at 1 h / solubility at 2 h / solubility at 4 h / solubility at 24 h / FC: solid form change / pH: final pH of supernatant / S: solubility: RT
Protocol: Kinetic solubility of two salt leads was measured in pH 2, 5, and 7 buffers to evaluate their solubility and disproportionation risk, using freebase Form A (812608-05-A) as control. […] After centrifugation, supernatants were collected for HPLC and pH tests, and wet cakes were collected for XRPD characterization. If clear solutions were obtained, accurate concentration was measured for the solutions.
Agilent 1100/1260 HPLC was utilized and detailed chromatographic conditions for purity and solubility measurement are listed in Table 39.

[3] = Solid-state stability under 40° C./75% RH for one week; conditions: for Solid-state Stability: 40° C./75% RH for at least one week; for FC: form change based on XRPD results / Purity vs. Initial (%): 40° C./75% RH; for FC: form change based on XRPD results / Purity vs. Initial (%) / Purity (area %): one week; for Purity (area %): after 40° C./75% RH, HPLC
Protocol: Solid-state stability of freebase Form A, HCl salt Form A and fumarate Form A was evaluated under 40° C./75% RH for one week. Stability samples were characterized by XRPD to check any solid form change and by HPLC to check purity change.

[4] = Approximate solubility of freebase in 12 solvents at RT; conditions: thermodynamic from solid
Protocol: Approximate solubility of freebase Form A (812608-05-A) was measured in 12 solvents at RT. For each experiment, approximately 2 mg of sample was added into a 3 mL glass vial. Solvents in Table 35 were then added step wise (50, 50, 200, 200, 500 μL) into the vials until the solids were dissolved visually or a total volume of 1 mL was reached. Solubility results summarized in Table 35 were used to guide the solvent selection in salt screening design.

Estimated pKa values = conditions: method not stated

## COc1cc(Nc2nccc(Nc3cccnc3-c3ccccn3)n2)ccc1N1CCN(C)CC1 [Freebase Form A, N^4-(2,2′-bipyridin-3-yl)-N^2-(3-methoxy-4-(4-methylpiperazin-1-yl)phenyl)pyrimidine-2,4-diamine]
[1]
  Hygroscopicity (%), water uptake: (0.60) %
[2]; pH 2 buffer, 1 hr
  solubility at 1 h: 4300 µg/mL (≈ 9.18 mM)
  FC: solid form change: No
  pH: final pH of supernatant: 6.2
[2]; pH 2 buffer, 2 hrs
  solubility at 2 h: 4100 µg/mL (≈ 8.75 mM)
  FC: solid form change: No
  pH: final pH of supernatant: 6.2
[2]; pH 2 buffer, 4 hrs
  solubility at 4 h: 4100 µg/mL (≈ 8.75 mM)
  FC: solid form change: No
  pH: final pH of supernatant: 6.2
[2]; pH 2 buffer, 24 hrs
  solubility at 24 h: 3200 µg/mL (≈ 6.83 mM)
  FC: solid form change: No
  pH: final pH of supernatant: 6.1
[2]; pH 5 buffer, 1 hr
  solubility at 1 h: 7400 µg/mL (≈ 15.8 mM)
  FC: solid form change: No*
  pH: final pH of supernatant: 6.2
[2]; pH 5 buffer, 2 hrs
  solubility at 2 h: 7200 µg/mL (≈ 15.4 mM)
  FC: solid form change: No*
  pH: final pH of supernatant: 6.3
[2]; pH 5 buffer, 4 hrs
  solubility at 4 h: 6300 µg/mL (≈ 13.4 mM)
  FC: solid form change: No
  pH: final pH of supernatant: 6.4
[2]; pH 5 buffer, 24 hrs
  solubility at 24 h: 6600 µg/mL (≈ 14.1 mM)
  FC: solid form change: No
  pH: final pH of supernatant: 6.4
[2]; pH 7 buffer, 1 hr
  solubility at 1 h: 0.4 µg/mL (≈ 0.000854 mM)
  FC: solid form change: No
  pH: final pH of supernatant: 7.0
[2]; pH 7 buffer, 2 hrs
  solubility at 2 h: 1 µg/mL (≈ 0.00213 mM)
  FC: solid form change: No
  pH: final pH of supernatant: 6.9
[2]; pH 7 buffer, 4 hrs
  solubility at 4 h: 0.4 µg/mL (≈ 0.000854 mM)
  FC: solid form change: No
  pH: final pH of supernatant: 7.0
[2]; pH 7 buffer, 24 hrs
  solubility at 24 h: 8.9 µg/mL (≈ 0.019 mM)
  FC: solid form change: No
  pH: final pH of supernatant: 7.0
[3]
  Solid-state Stability: Good physicochemical properties under 40° C./75%
  FC: form change based on XRPD results: No
  Purity vs. Initial (%): 100.0%
  Purity (area %): 99.18 area %
[4]; organic solvent or mixture, ACN
  solubility: < 2000 µg/mL
[4]; organic solvent or mixture, Acetone
  solubility: < 2400 µg/mL
[4]; organic solvent or mixture, EtOAc
  solubility: < 2500 µg/mL
[4]; organic solvent or mixture, EtOH
  solubility: 2100 to 4200 µg/mL (≈ 4.48 to 8.96 mM)
[4]; organic solvent or mixture, IPA
  solubility: < 2400 µg/mL
[4]; organic solvent or mixture, IPAc
  solubility: < 2400 µg/mL
[4]; organic solvent or mixture, MIBK
  solubility: 1900 to 3800 µg/mL (≈ 4.05 to 8.11 mM)
[4]; organic solvent or mixture, MeOH
  solubility: 2400 to 4800 µg/mL (≈ 5.12 to 10.2 mM)
[4]; organic solvent or mixture, THF
  solubility: 3600 to 6000 µg/mL (≈ 7.68 to 12.8 mM)
[4]; organic solvent or mixture, Toluene
  solubility: 2000 to 4000 µg/mL (≈ 4.27 to 8.54 mM)
[4]; organic solvent or mixture, n-Heptane
  solubility: < 2100 µg/mL
[4]; water, H2O
  solubility: < 1900 µg/mL
Estimated pKa values
  pKa: 7.5

## COc1cc(Nc2nccc(Nc3cccnc3-c3ccccn3)n2)ccc1N1CCN(C)CC1.Cl [HCl Salt Form A, N^4-(2,2′-bipyridin-3-yl)-N^2-(3-methoxy-4-(4-methylpiperazin-1-yl)phenyl)pyrimidine-2,4-diamine anhydrous hydrochloric acid salt]
[1]; 25° C., 95% RH
  Water uptake: 1.40%
[1]
  Hygroscopicity (%), water uptake: (0.86) %
[2]; pH 2, 5 and 7 buffers
  Kinetic Solubility compared with freebase Form A: showed increased solubility in pH 2, 5 and 7 buffers;
[2]; pH 2 buffer, 1 hr
  S: solubility: 13400 µg/mL
  pH: final pH of supernatant: 5.5
[2]; pH 2 buffer, 2 hrs
  S: solubility: 13300 µg/mL
  pH: final pH of supernatant: 5.6
[2]; pH 2 buffer, 4 hrs
  S: solubility: 13200 µg/mL
  pH: final pH of supernatant: 5.6
[2]; pH 2 buffer, 24 hrs
  S: solubility: 11800 µg/mL
  pH: final pH of supernatant: 5.6
[2]; pH 5 buffer, 1 hr
  S: solubility: 13200 µg/mL
  pH: final pH of supernatant: 5.7
[2]; pH 5 buffer, 2 hrs
  S: solubility: 13000 µg/mL
  pH: final pH of supernatant: 5.7
[2]; pH 5 buffer, 4 hrs
  S: solubility: 13000 µg/mL
  pH: final pH of supernatant: 5.7
[2]; pH 5 buffer, 24 hrs
  S: solubility: 11600 µg/mL
  pH: final pH of supernatant: 5.7
[2]; pH 7 buffer, 1 hr
  FC: solid form change: Yes
  S: solubility: 13500 µg/mL
  pH: final pH of supernatant: 7.0
[2]; pH 7 buffer, 2 hrs
  FC: solid form change: Yes
  S: solubility: 9600 µg/mL
  pH: final pH of supernatant: 6.9
[2]; pH 7 buffer, 4 hrs
  FC: solid form change: Yes
  S: solubility: 9400 µg/mL
  pH: final pH of supernatant: 6.9
[2]; pH 7 buffer, 24 hrs
  FC: solid form change: Yes
  S: solubility: 210 µg/mL
  pH: final pH of supernatant: 6.4
[3]
  Solid-state Stability: Good physicochemical properties under 40° C./75%
  FC: form change based on XRPD results: No
  Purity vs. Initial (%): 99.9%
  Purity (area %): 99.54 area %
